For 102 molecules, IC50 results are on record in PubChem BioAssay AID488890 (Southern Research Specialized Biocontainment Screening …, 2010).

In this assay the test system is Mycobacterium tuberculosis non-replicating, growth inhibition. The assay is described as follows: growth inhibition of non-replicating M. tuberculosis (AID 488890).

Molecules are shown by their SMILES. Results filed as inconclusive are left out. Calls of active or inactive are those of the source. No rule for the calls is given here.

With `O=C(OCc1ccccn1)c1ccc(COc2ccccc2Cl)o1`, the IC50 was 3.14 µM.

As for `Cc1cccc(NC(=O)c2n[nH]c([N+](=O)[O-])c2Br)c1C`, the IC50 was 7.96 µM.

`Cc1[nH]nc2c1C(c1ccc(OC(=O)c3ccco3)cc1)C(C#N)=C(N)O2` (configuration not stated): the IC50 was 6.69 µM.

Consider `O=C(CCCOc1ccccc1)OCn1nnc2ccccc2c1=O`, for which the IC50 is 24.8 µM (inactive).

Regarding `CCCCNC(=O)Nc1nnc(-c2ccc(OCC)cc2)o1`, the IC50 was 21.9 µM (inactive).

Regarding `S=c1[nH]cnc2sc(-c3ccccc3)cc12`, the IC50 was 33.3 µM (inactive).

For the molecule `O=C(COC(=O)c1ccc(Br)o1)NCCCc1ccccc1`, the IC50 is 6.5 µM.

On to `O=C(NCCCN1CCOCC1)c1ccc(CSc2ccc(Cl)cc2)cc1`, for which the IC50 was 29 µM (inactive).

Consider `COc1ccc(-c2[nH]ncc2CN2CCCCCCC2)c(OC)c1`, for which the IC50 was 11 µM (inactive).

Regarding `CC(=O)Nc1nc2ccccc2n1CCOc1ccccc1Cl`, the IC50 was 5.37 µM.

Take `Cc1cc(C)nc(-n2nc(C)cc2Nc2ccccc2)n1`: the IC50 was 5.25 µM.

As for `O=[N+]([O-])c1ccc(-n2nnnc2-c2ccccc2)c([N+](=O)[O-])c1`, the IC50 was 6.37 µM.

In the case of `CCCC(=O)OCCNc1cc(Sc2nccn2C)c2nonc2c1[N+](=O)[O-]`, the IC50 is 2.57 µM.

For `Cc1cccc(OCCCCc2c(C)n[nH]c2C)c1`, the IC50 was 9.86 µM.

In the case of `Cc1cccc(C(=O)Nc2nnc(-c3cccnc3)o2)c1`, the IC50 is 7.46 µM.

As to `COc1ccc(C(=O)Cn2c(C)nc([N+](=O)[O-])c2Br)cc1`, the IC50 was 19.9 µM (inactive).

Take `COC12C(COC(N)=O)C3=C(C(=O)C(C)=C(N)C3=O)N1CC1C2N1C` (configuration not stated): the IC50 was 0.12 µM.

With `NC(N)=Nc1nc(-c2ccccc2)c2ccccc2n1`, the IC50 was 12.8 µM (inactive).

For the molecule `CC(C)(C)Nc1nc(NC(C)(C)C)nc(-n2ccnc2)n1`, the IC50 was 23 µM (inactive).

Consider `CCCCSc1nnc(-c2ccc(C)cc2)o1`, for which the IC50 was 0.37 µM.

Consider `COc1cccc(OCc2nnc(-c3cccs3)o2)c1`, for which the IC50 was 1.57 µM.

`COc1cc(CNCCO)cc(Cl)c1OCc1ccc(Cl)cc1Cl`: the IC50 was 6.67 µM.

With `C/C(=N\NC(=O)c1ccc([N+](=O)[O-])c(C)c1)c1ccccc1Cl`, the IC50 was 12.2 µM (inactive).

For `COc1ccc(N2C(=O)C(F)(F)C2c2cccc(F)c2)cc1` (configuration not stated), the IC50 is 2.15 µM.

For `CC1C/C(=N/N2C(=O)CSC2=S)CC(C)(C)C1` (configuration not stated), the IC50 was 30.6 µM (inactive).

For `FC(F)c1nnc2ccc(Cl)nn12`, the IC50 is 5.9 µM.

Consider `CCCCCC/C(=N/O)c1ccccn1`, for which the IC50 was 11.6 µM (inactive).

Regarding `O=C(N/N=C/c1cccs1)c1cncc(Br)c1`, the IC50 is 4.85 µM.

As to `Cc1cnc(C(=O)NNC(=O)c2ccc(Br)cc2)cn1`, the IC50 is 4.88 µM.

Turning to `Cc1ccc(NC(=S)C2=C(O)c3sccc3N(C)S2(=O)=O)cc1`, the IC50 was 22.3 µM (inactive).

For `O=C(Nc1ccccn1)c1ccc(C(=O)c2ccccc2)cc1`, the IC50 was 18.4 µM (inactive).

Consider `Cc1cc(NC2CCCCC2)nc(NCc2ccccc2)n1`, for which the IC50 is 3.65 µM.

Turning to `CSc1ccccc1NC(=O)c1cc(C(C)C)on1`, the IC50 is 22.2 µM (inactive).

As for `O=[N+]([O-])c1cc(Cl)cc(/C=N\Nc2ccccn2)c1O`, the IC50 is 1.18 µM.

As for `Cc1cc(N2CCC(C)CC2)nc(NCc2ccccc2)n1`, the IC50 is 16.4 µM (inactive).

`O=C(N/N=C/c1ccc(OC(=O)c2cccs2)cc1)c1ccccn1`: the IC50 is 2.94 µM.

As for `O=C(OCc1nc2ccccc2s1)c1ccc(Br)o1`, the IC50 is 3.63 µM.

As to `CSc1ccc(NC(=O)Nc2cccn(Cc3ccccc3)c2=O)cc1`, the IC50 is 19.4 µM (inactive).

Consider `CCc1nnc(NC(=O)CN2CCN(c3ccccc3F)CC2)s1`, for which the IC50 was 29.2 µM (inactive).

In the case of `CCNC(=O)COC(=O)c1ccc(-c2nc3ccccc3s2)s1`, the IC50 is 5.7 µM.

In the case of `CN(C)CCC(=O)N1c2ccccc2Sc2ccc(Cl)cc21`, the IC50 is 21 µM (inactive).

Consider `CNc1nc(-c2ccccn2)nnc1-c1ccccc1`, for which the IC50 was 16.2 µM (inactive).

Regarding `Cc1ccccc1OCC(=O)OCC(=O)c1ccc[nH]1`, the IC50 is 21.2 µM (inactive).

On to `COc1ccc2cc(C(=O)C3CCCN(Cc4cccc(C)n4)C3)ccc2c1` (configuration not stated), for which the half-maximal inhibitory concentration (IC50) is 8.11 µM.

Turning to `CCOC(=O)C1CCN(c2nc3cc(OC)ccc3cc2C#N)CC1`, the IC50 is 11.1 µM (inactive).

Turning to `O=C(Nc1ccc2c(c1)CCC2)c1ccc(Br)o1`, the IC50 is 7.88 µM.

Consider `Cc1ccc(-n2nnnc2CNC(=O)c2ccc([N+](=O)[O-])o2)cc1C`, for which the IC50 was 24.2 µM (inactive).

In the case of `O=C(C/C=N\OCc1ccc([N+](=O)[O-])cc1)Nc1ccc(Br)cc1`, the IC50 is 10.9 µM (inactive).

For `O=C1c2cc([N+](=O)[O-])cc3cc([N+](=O)[O-])cc(c23)C(=O)N1c1ccccn1`, the half-maximal inhibitory concentration (IC50) is 3.46 µM.

`O=C(COC(=O)c1ccccc1Cl)NCCC1=CCCCC1`: the IC50 was 14.1 µM (inactive).

For `CCOC(=O)c1c(C)n(C)c2ccc(OC(C)C(=O)OC)cc12` (configuration not stated), the IC50 was 14.2 µM (inactive).

Regarding `CCOCC(=O)Nc1nc2ccc(C)cc2s1`, the IC50 was 2.06 µM.

For `O=c1c2cc(Cl)ccc2oc2nc3n(c(=O)c12)CCCS3`, the half-inhibitory concentration (IC50) was 3 µM.

As to `C=CCNc1nnc(Sc2ncccc2[N+](=O)[O-])s1`, the half-maximal inhibitory concentration (IC50) is 4.7 µM.

Consider `CCCCN1C(=O)C2(NNc3ccccc3O2)c2ccccc21` (configuration not stated), for which the IC50 was 4.67 µM.

For `COc1cccc2cc(C(=O)NCc3ccc(F)cc3)c(=N)oc12`, the IC50 is 8.67 µM.

Regarding `CCOC(=O)CNC(=O)N1c2ccccc2Sc2ccccc21`, the IC50 is 4.81 µM.

`CC1=NN(C(=O)COc2ccccc2C)C(O)(c2ccc(Cl)cc2)C1` (configuration not stated): the IC50 was 1.4 µM.

For the molecule `CCOc1cccc2cc(C(=O)NC(C)c3ccccc3)c(=N)oc12` (configuration not stated), the IC50 is 32.9 µM (inactive).

For `CC1CCN(C(=O)c2ccc(-c3ccccc3Cl)o2)CC1`, the IC50 is 5.32 µM.

`Cc1ccc(S(=O)(=O)N2CCC(C(=O)OCc3ccccc3)CC2)cc1C`: the IC50 was 9.82 µM.

On to `O=C(NCc1cccs1)c1cc(-c2ccc(O)cc2)on1`, for which the IC50 is 23.3 µM (inactive).

Turning to `CN1CCN(Cc2cc(C(C)(C)C)c(O)c(C(C)(C)C)c2)CC1`, the IC50 was 11.8 µM (inactive).

Consider `Cn1nnnc1N=N/C(=N/Nc1ccccc1)c1ccccc1`, for which the IC50 was 6.47 µM.

Consider `COc1cccc(NC(=O)c2cnc(SC)nc2)c1`, for which the IC50 is 10.4 µM (inactive).

In the case of `O=C(Nc1nc(-c2cc(F)ccc2F)cs1)c1ccccn1`, the half-maximal inhibitory concentration (IC50) is 2.28 µM.

Turning to `CN(CCS(=O)(=O)c1ccc(Cl)cc1)Cc1cccnc1`, the IC50 is 13.2 µM (inactive).

Take `O=C(NNC1=Nc2ccccc2SC1)c1ccc(F)cc1`: the IC50 was 17.3 µM (inactive).

With `O=C(Cc1c(F)cccc1Cl)Nc1ncc([N+](=O)[O-])s1`, the IC50 was 12.1 µM (inactive).

With `CCOC(=O)C(C)(C)n1nnc(-c2ccc([N+](=O)[O-])cc2)n1`, the IC50 is 14.3 µM (inactive).

Take `Cc1[nH]n(-c2cccc(Cl)c2)c(=O)c1/C=N/n1c(C)nc2ccccc2c1=O`: the IC50 is 19.5 µM (inactive).

Turning to `O=C(N/N=C/c1ccc[nH]1)c1cccnc1`, the IC50 is 26.7 µM (inactive).

With `C/C(=C\C(=O)c1ccncc1)Nc1ccccc1O`, the IC50 was 4.15 µM.

Turning to `Cc1ccc2nc(C)c3c(c2c1)COC3`, the IC50 was 29.8 µM (inactive).

As to `CCc1ccc(N2C(=O)CC(N3CCC(C(=O)OC)CC3)C2=O)cc1` (configuration not stated), the IC50 was 34.6 µM (inactive).

Consider `COc1c[nH]n(C2CCCCC2)c(=O)c1=O`, for which the IC50 is 8.76 µM.

Take `Cc1ccc(NC(=O)CCSc2nnc(-c3ccco3)o2)cc1`: the IC50 is 8.38 µM.

As for `O=C(N/N=C/C=C/c1ccccc1)c1ccncc1`, the IC50 was 0.92 µM.

In the case of `O=C(NNC1=C(C(=O)C(F)(F)F)CCC1)c1ccccc1Cl`, the IC50 is 1.32 µM.

As to `Cc1cc(N/N=C/c2ccccc2O)c2ccccc2n1`, the IC50 is 10.1 µM (inactive).

`CCOC(=O)C(Nc1ccc2ccccc2c1)C(=O)OCC`: the IC50 was 7.7 µM.

As for `C=CCc1ccc2oc(C(=O)OCC)cc(=O)c2c1O`, the IC50 is 1.26 µM.

As for `Fc1ccc(-c2ccc(CNCc3ccccn3)o2)cc1Cl`, the IC50 is 8.76 µM.

Regarding `O=C(O)c1ccccc1-c1ccccc1C(=O)Nc1nc2ccccc2s1`, the IC50 was 6.29 µM.

Take `O=C(COc1ccc2c(c1)CCC2)Nc1ccccn1`: the IC50 is 11.6 µM (inactive).

Regarding `CC(C)(C)c1ccc(OCCC(=O)OCC(=O)NC2CCCCC2)cc1`, the IC50 was 9.3 µM.

In the case of `O=C(Nc1nnc(-c2ccccc2Cl)o1)c1cccnc1`, the IC50 is 23.2 µM (inactive).

For `O=c1cc(-c2ccncc2)oc2c1ccc1ccccc12`, the IC50 is 22.3 µM (inactive).

As for `CCOC(=O)Cn1cc(C#N)c2ccccc21`, the IC50 is 6.17 µM.

Turning to `Cc1ccc(OCCCCc2c(C)n[nH]c2C)cc1`, the IC50 was 8.01 µM.

`COc1ccc(OCCOC(=O)CCS(=O)(=O)c2ccc(C)cc2)cc1`: the IC50 is 24.1 µM (inactive).

Take `CCCOC(=O)c1ccc(NC(=O)C2C3C=CC(O3)C2C(=O)O)cc1` (configuration not stated): the IC50 was 9.27 µM.

In the case of `C#CCSc1nnc(-c2ccc(C)cc2)o1`, the IC50 is 0.82 µM.

Regarding `O=C(c1cccs1)N1CCN(c2ccc(Cl)cc2)CC1`, the IC50 is 27.2 µM (inactive).

For the molecule `Cc1onc(-c2c(F)cccc2Cl)c1C(=O)O/N=C(\N)c1ccc([N+](=O)[O-])o1`, the IC50 is 5.96 µM.

On to `Cc1n[nH]c(C)c1CCOc1ccc(C(C)C)cc1`, for which the IC50 is 19.5 µM (inactive).

`CC1CCCN(CCC(=O)c2ccc(Br)cc2)C1` (configuration not stated): the IC50 is 1.16 µM.

As for `Cc1ccc(NCCC(=O)c2cccs2)cc1`, the IC50 is 2.33 µM.

Take `CCS(=O)(=O)c1ncc(Cl)c(C(=O)Nc2ccc(S(=O)(=O)N(C)c3ccccc3)cc2)n1`: the IC50 was 7.18 µM.

`O=[N+]([O-])c1ccc(S(=O)(=O)c2cccc(C(F)(F)F)c2)nc1`: the IC50 is less than 0.1 µM.

`CC(=O)Nc1ccc(NC(=O)c2cc([N+](=O)[O-])cc([N+](=O)[O-])c2)cc1`: the IC50 was 8.92 µM.

Turning to `CCCCOc1ccc(NC(=O)CN2CCN(Cc3ccccc3)CC2)cc1`, the IC50 was 25.6 µM (inactive).

The IC50 is the concentration at which inhibition is half-maximal.
